Source: ChEMBL document CHEMBL5465560, “Selectivity Literature for EUbOPEN Chemogenomic Library” (2024)
One block for each compound: values may come before it.

What was measured:
[1] = target: T1, Muscarinic acetylcholine receptor M1 (Homo sapiens) (UniProt P11229); test: Selectivity interaction (Eurofins CEREP Diversity Profile (receptors and ion channels)) EUB0000279b CHRM1; conditions: at 10 µM
T1 sequence (whole entry): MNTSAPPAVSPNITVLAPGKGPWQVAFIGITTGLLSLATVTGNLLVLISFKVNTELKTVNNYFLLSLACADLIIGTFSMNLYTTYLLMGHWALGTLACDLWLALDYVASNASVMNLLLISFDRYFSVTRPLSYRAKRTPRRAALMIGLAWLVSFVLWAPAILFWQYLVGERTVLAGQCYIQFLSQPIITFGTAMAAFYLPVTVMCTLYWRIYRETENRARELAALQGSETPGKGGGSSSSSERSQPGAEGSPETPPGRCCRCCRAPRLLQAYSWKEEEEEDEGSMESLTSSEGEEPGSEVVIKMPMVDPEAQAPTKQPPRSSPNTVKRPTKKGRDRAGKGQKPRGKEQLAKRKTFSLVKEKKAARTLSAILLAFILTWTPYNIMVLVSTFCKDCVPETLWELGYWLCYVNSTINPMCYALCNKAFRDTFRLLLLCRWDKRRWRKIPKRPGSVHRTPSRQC

[2] = target: Serine/threonine-protein kinase Nek4 (Homo sapiens) (UniProt P51957); test: Selectivity interaction (Kinase panel (Eurofins)) EUB0001564a NEK4; conditions: at 1 µM
[3] = target: T2, Serine/threonine-protein kinase TBK1 (Homo sapiens) (UniProt Q9UHD2); test: Selectivity interaction (ActivX KiNativ screen (kinase selectivity in THP-1 cell lysates)) EUB0000639a TBK1; type: subcellular; conditions: lysate, at 0.04 µM
T2 sequence (whole entry): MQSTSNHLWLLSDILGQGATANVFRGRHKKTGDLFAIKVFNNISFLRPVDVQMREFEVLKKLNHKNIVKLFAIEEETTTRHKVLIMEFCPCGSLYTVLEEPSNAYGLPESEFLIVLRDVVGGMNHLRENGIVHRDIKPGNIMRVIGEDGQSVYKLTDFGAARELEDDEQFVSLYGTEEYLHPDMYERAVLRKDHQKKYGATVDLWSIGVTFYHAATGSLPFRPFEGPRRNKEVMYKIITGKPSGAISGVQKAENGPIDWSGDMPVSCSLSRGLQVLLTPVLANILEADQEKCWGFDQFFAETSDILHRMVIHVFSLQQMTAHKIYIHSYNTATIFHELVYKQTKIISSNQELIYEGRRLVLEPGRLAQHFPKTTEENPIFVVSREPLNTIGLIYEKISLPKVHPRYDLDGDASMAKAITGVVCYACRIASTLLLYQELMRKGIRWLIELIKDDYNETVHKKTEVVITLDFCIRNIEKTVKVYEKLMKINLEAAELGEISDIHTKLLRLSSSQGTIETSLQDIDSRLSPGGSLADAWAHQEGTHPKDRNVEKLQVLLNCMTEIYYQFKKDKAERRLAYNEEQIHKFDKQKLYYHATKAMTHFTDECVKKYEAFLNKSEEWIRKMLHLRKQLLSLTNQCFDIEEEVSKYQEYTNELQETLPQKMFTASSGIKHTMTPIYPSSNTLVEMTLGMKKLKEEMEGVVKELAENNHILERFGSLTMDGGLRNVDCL

[4] = target: Tyrosine-protein kinase Fer (Homo sapiens) (UniProt P16591); test: Selectivity interaction (KinomeScan (DiscoverX)) EUB0001049a FER; conditions: at 1 µM
[5] = target: Serine/threonine-protein kinase MRCK gamma (Homo sapiens) (UniProt Q6DT37); test: Selectivity interaction (Ambit KINOMEscan and KiNATiv profiling in Jurkat cells) EUB0000090b CDC42BPG; type: cell-based; conditions: at 1 µM
[6] = target: T3, Tyrosine-protein kinase JAK3 (Homo sapiens) (UniProt P52333); test: Selectivity interaction (Antiproliferative activity against Tel-kinase transformed Ba/F3 cell line) EUB0000045b JAK3; type: cell-based; conditions: BaF3
T3 sequence (whole entry): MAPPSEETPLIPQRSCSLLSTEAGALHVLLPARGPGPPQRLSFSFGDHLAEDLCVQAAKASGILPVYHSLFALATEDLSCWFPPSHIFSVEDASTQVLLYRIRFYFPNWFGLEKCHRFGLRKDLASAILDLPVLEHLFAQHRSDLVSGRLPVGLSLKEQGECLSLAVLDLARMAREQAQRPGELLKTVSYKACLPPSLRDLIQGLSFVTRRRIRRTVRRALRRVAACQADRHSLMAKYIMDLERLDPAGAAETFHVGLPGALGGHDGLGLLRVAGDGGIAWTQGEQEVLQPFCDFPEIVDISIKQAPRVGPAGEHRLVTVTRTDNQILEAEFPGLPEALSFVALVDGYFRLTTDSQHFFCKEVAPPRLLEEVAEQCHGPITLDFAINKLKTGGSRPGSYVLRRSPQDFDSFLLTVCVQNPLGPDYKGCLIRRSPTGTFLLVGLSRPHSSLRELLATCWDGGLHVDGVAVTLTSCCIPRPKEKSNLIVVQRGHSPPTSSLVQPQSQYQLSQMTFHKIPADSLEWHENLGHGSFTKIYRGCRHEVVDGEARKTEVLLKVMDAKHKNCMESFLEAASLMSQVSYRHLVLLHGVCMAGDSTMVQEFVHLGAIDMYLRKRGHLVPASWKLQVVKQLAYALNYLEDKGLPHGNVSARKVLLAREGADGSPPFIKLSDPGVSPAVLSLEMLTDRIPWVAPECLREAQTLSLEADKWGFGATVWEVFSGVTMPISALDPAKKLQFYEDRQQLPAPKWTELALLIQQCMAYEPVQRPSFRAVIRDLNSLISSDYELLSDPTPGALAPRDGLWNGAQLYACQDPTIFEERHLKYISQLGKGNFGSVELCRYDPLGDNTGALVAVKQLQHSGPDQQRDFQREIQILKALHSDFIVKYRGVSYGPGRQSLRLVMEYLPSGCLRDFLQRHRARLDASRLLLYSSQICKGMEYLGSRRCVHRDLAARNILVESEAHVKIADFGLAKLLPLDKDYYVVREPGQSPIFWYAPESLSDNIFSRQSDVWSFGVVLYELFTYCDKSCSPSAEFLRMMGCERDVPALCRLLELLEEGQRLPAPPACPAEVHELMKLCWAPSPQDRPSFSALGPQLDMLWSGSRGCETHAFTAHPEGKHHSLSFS

[7] = target: Leucine-rich repeat serine/threonine-protein kinase 2 (Homo sapiens, UniProt Q5S007); conditions: at 1 µM
Sequence of Leucine-rich repeat serine/threonine-protein kinase 2 (Q5S007 whole entry): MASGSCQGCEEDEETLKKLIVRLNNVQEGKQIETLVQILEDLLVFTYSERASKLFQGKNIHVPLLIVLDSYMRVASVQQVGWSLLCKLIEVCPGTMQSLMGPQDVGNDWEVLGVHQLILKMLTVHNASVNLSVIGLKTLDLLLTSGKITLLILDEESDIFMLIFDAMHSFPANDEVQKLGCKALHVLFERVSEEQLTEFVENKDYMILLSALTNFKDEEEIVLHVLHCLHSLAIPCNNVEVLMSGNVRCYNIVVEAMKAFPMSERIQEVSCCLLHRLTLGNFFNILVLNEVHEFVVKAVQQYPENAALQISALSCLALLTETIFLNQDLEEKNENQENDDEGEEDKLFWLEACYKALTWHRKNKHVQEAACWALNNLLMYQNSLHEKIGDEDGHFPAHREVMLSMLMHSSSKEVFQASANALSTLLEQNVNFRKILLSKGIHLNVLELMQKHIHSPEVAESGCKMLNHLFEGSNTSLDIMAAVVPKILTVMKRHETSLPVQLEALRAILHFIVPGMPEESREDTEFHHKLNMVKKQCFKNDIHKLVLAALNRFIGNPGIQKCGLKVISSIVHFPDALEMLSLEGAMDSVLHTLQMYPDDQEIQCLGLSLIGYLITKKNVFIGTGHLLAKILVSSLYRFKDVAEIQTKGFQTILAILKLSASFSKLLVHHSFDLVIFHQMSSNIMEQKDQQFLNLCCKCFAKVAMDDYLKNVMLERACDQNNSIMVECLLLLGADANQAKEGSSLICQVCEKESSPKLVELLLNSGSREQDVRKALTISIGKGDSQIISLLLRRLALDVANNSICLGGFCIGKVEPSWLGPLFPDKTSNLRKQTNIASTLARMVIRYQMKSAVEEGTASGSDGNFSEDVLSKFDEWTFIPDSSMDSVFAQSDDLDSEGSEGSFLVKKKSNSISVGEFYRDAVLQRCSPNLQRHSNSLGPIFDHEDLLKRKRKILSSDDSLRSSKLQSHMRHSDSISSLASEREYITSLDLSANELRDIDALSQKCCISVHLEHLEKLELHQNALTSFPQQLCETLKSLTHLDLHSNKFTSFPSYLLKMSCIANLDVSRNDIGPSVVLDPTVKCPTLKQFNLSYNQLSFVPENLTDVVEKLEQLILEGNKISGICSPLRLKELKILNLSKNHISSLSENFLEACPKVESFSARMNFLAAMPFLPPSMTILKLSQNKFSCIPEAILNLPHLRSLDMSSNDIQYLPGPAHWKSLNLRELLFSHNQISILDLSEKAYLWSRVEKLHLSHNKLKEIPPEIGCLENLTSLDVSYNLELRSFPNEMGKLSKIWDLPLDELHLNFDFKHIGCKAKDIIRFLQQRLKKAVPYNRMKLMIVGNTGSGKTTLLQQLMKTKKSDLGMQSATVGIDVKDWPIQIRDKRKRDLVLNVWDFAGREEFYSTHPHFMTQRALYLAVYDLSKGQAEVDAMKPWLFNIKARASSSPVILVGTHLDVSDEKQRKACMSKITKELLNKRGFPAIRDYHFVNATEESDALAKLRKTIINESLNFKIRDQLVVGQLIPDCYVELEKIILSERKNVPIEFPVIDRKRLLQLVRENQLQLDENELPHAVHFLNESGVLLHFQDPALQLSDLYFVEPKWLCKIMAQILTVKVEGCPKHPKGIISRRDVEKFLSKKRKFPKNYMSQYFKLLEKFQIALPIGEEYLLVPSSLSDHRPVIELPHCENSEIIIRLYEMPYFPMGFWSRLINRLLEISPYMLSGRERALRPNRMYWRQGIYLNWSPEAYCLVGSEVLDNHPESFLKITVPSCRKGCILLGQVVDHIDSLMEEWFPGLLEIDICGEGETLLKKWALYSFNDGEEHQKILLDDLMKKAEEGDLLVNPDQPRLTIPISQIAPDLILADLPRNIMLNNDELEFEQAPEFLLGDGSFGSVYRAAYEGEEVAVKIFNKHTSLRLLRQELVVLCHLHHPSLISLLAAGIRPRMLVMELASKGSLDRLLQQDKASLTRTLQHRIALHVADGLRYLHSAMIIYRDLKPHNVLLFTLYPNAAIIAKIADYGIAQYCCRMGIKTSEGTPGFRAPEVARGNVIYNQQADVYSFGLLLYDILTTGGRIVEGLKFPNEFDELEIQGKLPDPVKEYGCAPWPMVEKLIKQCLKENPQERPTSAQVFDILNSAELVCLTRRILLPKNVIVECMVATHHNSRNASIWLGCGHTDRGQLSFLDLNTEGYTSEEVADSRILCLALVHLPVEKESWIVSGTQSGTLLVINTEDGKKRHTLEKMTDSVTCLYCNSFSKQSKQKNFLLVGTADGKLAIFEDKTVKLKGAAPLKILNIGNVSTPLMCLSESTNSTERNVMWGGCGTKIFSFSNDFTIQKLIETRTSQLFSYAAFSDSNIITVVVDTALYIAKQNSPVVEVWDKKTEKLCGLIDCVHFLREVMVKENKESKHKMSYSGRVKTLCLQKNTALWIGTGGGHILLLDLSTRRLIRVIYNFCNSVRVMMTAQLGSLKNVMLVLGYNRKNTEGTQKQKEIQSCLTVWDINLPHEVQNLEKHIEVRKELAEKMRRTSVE

Sequence of Serine/threonine-protein kinase MRCK gamma (Homo sapiens) (Q6DT37 whole entry): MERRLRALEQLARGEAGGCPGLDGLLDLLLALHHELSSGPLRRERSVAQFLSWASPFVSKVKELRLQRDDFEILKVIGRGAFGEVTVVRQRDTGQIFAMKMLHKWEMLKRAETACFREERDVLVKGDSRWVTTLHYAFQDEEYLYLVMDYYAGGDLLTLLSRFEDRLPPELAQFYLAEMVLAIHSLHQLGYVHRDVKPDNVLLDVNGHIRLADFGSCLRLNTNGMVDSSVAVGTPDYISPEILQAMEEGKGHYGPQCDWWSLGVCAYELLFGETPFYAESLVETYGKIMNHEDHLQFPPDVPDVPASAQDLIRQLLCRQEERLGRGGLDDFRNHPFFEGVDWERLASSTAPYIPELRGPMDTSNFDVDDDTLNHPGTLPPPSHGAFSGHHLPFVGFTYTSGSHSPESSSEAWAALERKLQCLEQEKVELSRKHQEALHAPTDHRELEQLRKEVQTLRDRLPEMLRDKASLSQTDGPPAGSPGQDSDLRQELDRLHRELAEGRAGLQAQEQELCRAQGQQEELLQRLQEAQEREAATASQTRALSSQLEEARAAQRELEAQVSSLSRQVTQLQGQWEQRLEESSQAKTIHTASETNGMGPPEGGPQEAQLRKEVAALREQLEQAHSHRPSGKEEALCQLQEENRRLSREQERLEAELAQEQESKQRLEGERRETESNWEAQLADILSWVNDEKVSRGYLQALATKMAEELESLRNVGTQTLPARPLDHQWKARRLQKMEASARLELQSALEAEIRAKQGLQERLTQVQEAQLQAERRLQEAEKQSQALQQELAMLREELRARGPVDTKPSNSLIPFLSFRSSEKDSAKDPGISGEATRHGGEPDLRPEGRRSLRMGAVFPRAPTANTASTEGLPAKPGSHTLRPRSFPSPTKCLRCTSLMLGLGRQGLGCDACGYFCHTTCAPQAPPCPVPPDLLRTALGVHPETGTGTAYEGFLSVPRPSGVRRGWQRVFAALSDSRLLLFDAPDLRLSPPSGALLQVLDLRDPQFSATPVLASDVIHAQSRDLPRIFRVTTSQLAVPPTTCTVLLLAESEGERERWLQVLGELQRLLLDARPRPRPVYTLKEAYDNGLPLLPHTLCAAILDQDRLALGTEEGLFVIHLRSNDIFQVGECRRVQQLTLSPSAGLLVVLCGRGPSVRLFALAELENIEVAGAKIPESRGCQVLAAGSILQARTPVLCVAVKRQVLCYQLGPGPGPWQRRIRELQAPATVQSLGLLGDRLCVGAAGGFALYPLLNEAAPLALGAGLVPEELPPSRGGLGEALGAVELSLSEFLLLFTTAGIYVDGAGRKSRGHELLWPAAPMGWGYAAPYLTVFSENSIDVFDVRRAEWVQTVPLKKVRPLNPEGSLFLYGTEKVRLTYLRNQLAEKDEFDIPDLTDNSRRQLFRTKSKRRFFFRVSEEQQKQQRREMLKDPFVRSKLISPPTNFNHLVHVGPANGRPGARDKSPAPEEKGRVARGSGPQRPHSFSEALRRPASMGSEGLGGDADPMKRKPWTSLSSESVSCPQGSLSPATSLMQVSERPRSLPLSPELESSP
Sequence of Tyrosine-protein kinase Fer (Homo sapiens) (P16591 whole entry, looked up): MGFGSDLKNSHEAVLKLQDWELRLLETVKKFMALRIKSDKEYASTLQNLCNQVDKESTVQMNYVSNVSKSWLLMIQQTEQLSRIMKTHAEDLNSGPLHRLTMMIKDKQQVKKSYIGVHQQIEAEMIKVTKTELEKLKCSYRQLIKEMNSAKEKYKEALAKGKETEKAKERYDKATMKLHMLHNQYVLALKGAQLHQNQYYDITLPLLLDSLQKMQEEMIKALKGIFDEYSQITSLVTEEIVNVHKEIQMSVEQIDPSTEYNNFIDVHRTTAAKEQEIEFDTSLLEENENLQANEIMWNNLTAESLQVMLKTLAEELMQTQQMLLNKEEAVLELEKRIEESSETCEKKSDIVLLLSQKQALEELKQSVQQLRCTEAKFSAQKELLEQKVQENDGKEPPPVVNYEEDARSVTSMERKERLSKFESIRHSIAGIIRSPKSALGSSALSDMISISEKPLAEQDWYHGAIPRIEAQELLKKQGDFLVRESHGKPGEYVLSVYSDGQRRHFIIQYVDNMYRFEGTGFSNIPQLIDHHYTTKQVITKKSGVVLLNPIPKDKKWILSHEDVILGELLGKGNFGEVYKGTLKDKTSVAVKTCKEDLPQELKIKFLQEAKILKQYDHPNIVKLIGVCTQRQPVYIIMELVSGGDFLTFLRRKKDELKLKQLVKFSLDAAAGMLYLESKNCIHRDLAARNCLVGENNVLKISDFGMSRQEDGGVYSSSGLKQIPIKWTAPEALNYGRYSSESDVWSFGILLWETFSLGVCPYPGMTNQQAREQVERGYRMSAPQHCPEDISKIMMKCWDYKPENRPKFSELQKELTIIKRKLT

% of control [1]: 115%
SMILES: CC(=O)c1cc(-c2ccccc2OCC2CC2)c2ncccn12

% of inhibition [2]: 32.1%
SMILES: CC[C@@H](Nc1c(C#N)c(-c2ccc(-c3cccc(C)c3F)cc2)nc2cnccc12)C(=O)O [BAY-091]

% of inhibition [3]: -7.8%
SMILES: CC[C@@H]1[C@H](F)C(=O)N[C@@H]1COc1nccc2cc(C(N)=O)c(OC)cc12 [ZIMLOVISERTIB]

SMILES: COc1cc(Nc2nc(C)cc(-c3cnn4nc(OC)ccc34)n2)cc(C(F)(F)F)c1
% of control [4]: 93%

SMILES: CN(C)C/C=C/C(=O)Nc1ccc(C(=O)N2CCCC(Nc3ncc(Cl)c(-c4c[nH]c5ccccc45)n3)C2)cc1 (configuration not stated)
% of control [5]: 90%

SMILES: C=CC(=O)Nc1cc(-n2c(=O)ccc3cnc4ccc(-c5ccc(NS(C)(=O)=O)cc5)cc4c32)ccc1C
GIC50 [6]: 7.98 µM

SMILES: N#Cc1cccc(-c2c[nH]c3ncnc(N4CCOCC4)c23)c1
% of control [7]: 43%
